Assay results taken from patent US20260306644A1, “ANTIBODY RECRUITING MOLECULES FOR THE TREATMENT OF CORONAVIRUS DISEASE-19” (priority 2023, published 2026).
Several values for one entry are separate records, joined by “and”; a condition that tells them apart may be missing. Equal entries are not always repeated.

Legend:
SARS-CoV-2 Spike protein = SARS-CoV-2 Spike protein (Severe acute respiratory syndrome coronavirus 2, UniProt P0DTC2); experiment: Ternary binding of SARS-CoV-2 Spike protein (293T cells expressing Spike-GFP, IgG-AF647, flow cytometry); format: cell-based; conditions: 293T cells expressing Spike-GFP; IgG-AF647 10 μg/ml; repeat values/batches listed separately; read-out: SARS-CoV-2 Ternary binding EC50
[1] = molecular target: T1, SARS-CoV-2 Spike A (wild-type) (Severe acute respiratory syndrome coronavirus 2, UniProt P0DTC2); experiment: MSD ACE2 competition assay (inhibition of Spike binding with ACE2, ECL), A (wild-type); conditions: IC50 Wild Type, Wild Type Spike
T1 construct: purchased Meso Scale Diagnostics, LLC V-PLEX SARS-CoV-2 Panel 13 (ACE2) Kit / Panel 23 (ACE2) Kit

Q: What does the source list for `CC[C@H](C)[C@H](NC(=O)[C@H](CC(C)C)NC(=O)[C@H](CC(=O)O)NC(=O)[C@H](CO)NC(=O)[C@@H](NC(=O)[C@H](CCCNC(=N)N)NC(=O)[C@H](CCSC)NC(=O)[C@H](CO)NC(=O)[C@H](C)NC(=O)[C@H](CCC(=O)O)NC(=O)[C@H](C)NC(=O)[C@H](Cc1c[nH]cn1)NC(=O)CNC(=O)[C@H](CC(C)C)NC(=O)[C@H](CCC(=O)O)NC(=O)[C@H](CC(=O)O)NC(=O)[C@H](CC(C)C)NC(=O)[C@H](CC(C)C)NC(=O)[C@H](CCCNC(=N)N)NC(=O)[C@H](CCSC)NC(=O)[C@@H](NC(=O)[C@H](CCC(=O)O)NC(=O)[C@H](Cc1ccc(O)cc1)NC(=O)[C@@H](NC(=O)[C@H](CCCCN)NC(=O)[C@H](CCC(N)=O)NC(=O)[C@H](CC(C)C)NC(=O)[C@@H](NC(=O)[C@H](Cc1c[nH]c2ccccc12)NC(=O)[C@H](CCC(=O)O)NC(=O)[C@H](CCCCN)NC(=O)[C@H](CC(=O)O)NC(C)=O)[C@@H](C)CC)[C@@H](C)CC)[C@@H](C)CC)C(C)C)C(=O)N[C@@H](Cc1ccc(O)cc1)C(=O)N[C@@H](CCC(=O)O)C(=O)N[C@@H](Cc1ccccc1)C(=O)N[C@@H](CCSC)C(=O)N[C@@H](CCCCN)C(=O)N[C@@H](CCCCN)C(=O)NCC(=O)N[C@@H](CC(=O)O)C(=O)N[C@H]1CSSC[C@@H](C(=O)N[C@H](C(=O)O)[C@@H](C)O)NC(=O)[C@H](Cc2c[nH]c3ccccc23)NC(=O)[C@H](C(C)C)NC(=O)[C@H](CC(C)C)NC(=O)[C@H](CCC(=O)O)NC(=O)CNC(=O)[C@H](CC(C)C)NC(=O)[C@H](Cc2c[nH]cn2)NC(=O)[C@H](Cc2c[nH]c3ccccc23)NC(=O)[C@H](C)NC1=O` [Compound 112]?
A: EC50 (SARS-CoV-2 Spike protein): 0.45 nM and 0.55 nM; IC50 [1]: 40.7 nM

Q: Which EC50 (SARS-CoV-2 Spike protein) does the source give for `CC[C@H](C)[C@H](NC(=O)[C@H](CC(C)C)NC(=O)[C@H](CC(=O)O)NC(=O)[C@H](CO)NC(=O)[C@@H](NC(=O)[C@H](CCCNC(=N)N)NC(=O)[C@H](CCSC)NC(=O)[C@H](CO)NC(=O)[C@H](C)NC(=O)[C@H](CCC(=O)O)NC(=O)[C@H](C)NC(=O)[C@H](Cc1c[nH]cn1)NC(=O)CNC(=O)[C@H](CC(C)C)NC(=O)[C@H](CCC(=O)O)NC(=O)[C@H](CC(=O)O)NC(=O)[C@H](CC(C)C)NC(=O)[C@H](CC(C)C)NC(=O)[C@H](CCCNC(=N)N)NC(=O)[C@H](CCSC)NC(=O)[C@@H](NC(=O)[C@H](CCC(=O)O)NC(=O)[C@H](Cc1ccc(O)cc1)NC(=O)[C@@H](NC(=O)[C@H](CCCCN)NC(=O)[C@H](CCC(N)=O)NC(=O)[C@H](CC(C)C)NC(=O)[C@@H](NC(=O)[C@H](Cc1c[nH]c2ccccc12)NC(=O)[C@H](CCC(=O)O)NC(=O)[C@H](CCCCN)NC(=O)[C@@H](N)CC(=O)O)[C@@H](C)CC)[C@@H](C)CC)[C@@H](C)CC)C(C)C)C(=O)N[C@@H](Cc1ccc(O)cc1)C(=O)N[C@@H](CCC(=O)O)C(=O)N[C@@H](Cc1ccccc1)C(=O)N[C@@H](CCSC)C(=O)N[C@@H](CCCCN)C(=O)N[C@@H](CCCCN)C(=O)NCC(=O)N[C@@H](CC(=O)O)C(=O)N[C@H]1CSSC[C@@H](C(=O)N[C@H](C(=O)O)[C@@H](C)O)NC(=O)[C@H](Cc2c[nH]c3ccccc23)NC(=O)[C@H](C(C)C)NC(=O)[C@H](CC(C)C)NC(=O)[C@H](CCC(=O)O)NC(=O)CNC(=O)[C@H](CC(C)C)NC(=O)[C@H](Cc2c[nH]cn2)NC(=O)[C@H](Cc2c[nH]c3ccccc23)NC(=O)[C@H](C)NC1=O` [Compound 113] here?
A: 0.48 nM and 0.47 nM

Q: What about the IC50 [1] of the same compound?
A: 41.2 nM and 52.9 nM

Q: `CC[C@H](C)[C@H](NC(=O)[C@H](CC(C)C)NC(=O)[C@H](CC(=O)O)NC(=O)[C@H](CO)NC(=O)[C@@H](NC(=O)[C@H](CCCNC(=N)N)NC(=O)[C@H](CCSC)NC(=O)[C@H](CO)NC(=O)[C@H](C)NC(=O)[C@H](CCC(=O)O)NC(=O)[C@H](C)NC(=O)[C@H](Cc1c[nH]cn1)NC(=O)CNC(=O)[C@H](CC(C)C)NC(=O)[C@H](CCC(=O)O)NC(=O)[C@H](CC(=O)O)NC(=O)[C@H](CC(C)C)NC(=O)[C@H](CC(C)C)NC(=O)[C@H](CCCNC(=N)N)NC(=O)[C@H](CCSC)NC(=O)[C@@H](NC(=O)[C@H](CCC(=O)O)NC(=O)[C@H](Cc1ccc(O)cc1)NC(=O)[C@@H](NC(=O)[C@H](CCCCN)NC(=O)[C@H](CCC(N)=O)NC(=O)[C@H](CC(C)C)NC(=O)[C@@H](NC(=O)[C@H](Cc1c[nH]c2ccccc12)NC(=O)[C@H](CCC(=O)O)NC(=O)[C@H](CCCCN)NC(=O)[C@@H](N)CC(=O)O)[C@@H](C)CC)[C@@H](C)CC)[C@@H](C)CC)C(C)C)C(=O)N[C@@H](Cc1ccc(O)cc1)C(=O)N[C@@H](CCC(=O)O)C(=O)N[C@@H](Cc1ccccc1)C(=O)N[C@@H](CCSC)C(=O)N[C@@H](CCCCN)C(=O)N[C@@H](CCCCN)C(=O)N[C@@H](CC(=O)O)C(=O)N[C@H]1CSSC[C@@H](C(=O)N[C@H](C(=O)O)[C@@H](C)O)NC(=O)[C@H](Cc2c[nH]c3ccccc23)NC(=O)[C@H](C(C)C)NC(=O)[C@H](CC(C)C)NC(=O)[C@H](CCC(=O)O)NC(=O)CNC(=O)[C@H](CC(C)C)NC(=O)[C@H](Cc2c[nH]cn2)NC(=O)[C@H](Cc2c[nH]c3ccccc23)NC(=O)[C@H](C)NC1=O` [Compound 115] was tested. Which EC50 (SARS-CoV-2 Spike protein) did it give?
A: 0.34 nM and 0.36 nM and 0.23 nM and 0.26 nM

Q: And the IC50 [1]?
A: 45.7 nM

Q: How did the EC50 (SARS-CoV-2 Spike protein) turn out when `CC[C@H](C)[C@H](NC(C)=O)C(=O)N[C@@H](CC(C)C)C(=O)N[C@@H](CCC(N)=O)C(=O)N[C@@H](CCCCN)C(=O)N[C@H](C(=O)N[C@@H](Cc1ccc(O)cc1)C(=O)N[C@@H](CCC(=O)O)C(=O)N[C@H](C(=O)N[C@@H](CCSC)C(=O)N[C@@H](CCCNC(=N)N)C(=O)N[C@@H](CC(C)C)C(=O)N[C@@H](CC(C)C)C(=O)N[C@@H](CC(=O)O)C(=O)N[C@@H](CCC(=O)O)C(=O)N[C@@H](CC(C)C)C(=O)NCC(=O)N[C@@H](Cc1c[nH]cn1)C(=O)N[C@@H](C)C(=O)N[C@@H](CCC(=O)O)C(=O)N[C@@H](C)C(=O)N[C@@H](CO)C(=O)N[C@@H](CCSC)C(=O)N[C@@H](CCCNC(=N)N)C(=O)N[C@H](C(=O)N[C@@H](CO)C(=O)N[C@@H](CC(=O)O)C(=O)N[C@@H](CC(C)C)C(=O)N[C@H](C(=O)N[C@@H](Cc1ccc(O)cc1)C(=O)N[C@@H](CCC(=O)O)C(=O)N[C@@H](Cc1ccccc1)C(=O)N[C@@H](CCSC)C(=O)N[C@@H](CCCCN)C(=O)N[C@@H](CCCCN)C(=O)NCC(=O)N[C@@H](CC(=O)O)C(=O)N[C@H]1CSSC[C@@H](C(=O)N[C@H](C(=O)O)[C@@H](C)O)NC(=O)[C@H](Cc2c[nH]c3ccccc23)NC(=O)[C@H](C(C)C)NC(=O)[C@H](CC(C)C)NC(=O)[C@H](CCC(=O)O)NC(=O)CNC(=O)[C@H](CC(C)C)NC(=O)[C@H](Cc2c[nH]cn2)NC(=O)[C@H](Cc2c[nH]c3ccccc23)NC(=O)[C@H](C)NC1=O)[C@@H](C)CC)C(C)C)[C@@H](C)CC)[C@@H](C)CC` [Compound 116] was run?
A: 9.3 nM and 11 nM

Q: And the IC50 [1]?
A: > 100 nM (2×) and 114 nM

Q: Which EC50 (SARS-CoV-2 Spike protein) does the source give for `CC[C@H](C)[C@H](N)C(=O)N[C@@H](CC(C)C)C(=O)N[C@@H](CCC(N)=O)C(=O)N[C@@H](CCCCN)C(=O)N[C@H](C(=O)N[C@@H](Cc1ccc(O)cc1)C(=O)N[C@@H](CCC(=O)O)C(=O)N[C@H](C(=O)N[C@@H](CCSC)C(=O)N[C@@H](CCCNC(=N)N)C(=O)N[C@@H](CC(C)C)C(=O)N[C@@H](CC(C)C)C(=O)N[C@@H](CC(=O)O)C(=O)N[C@@H](CCC(=O)O)C(=O)N[C@@H](CC(C)C)C(=O)NCC(=O)N[C@@H](Cc1c[nH]cn1)C(=O)N[C@@H](C)C(=O)N[C@@H](CCC(=O)O)C(=O)N[C@@H](C)C(=O)N[C@@H](CO)C(=O)N[C@@H](CCSC)C(=O)N[C@@H](CCCNC(=N)N)C(=O)N[C@H](C(=O)N[C@@H](CO)C(=O)N[C@@H](CC(=O)O)C(=O)N[C@@H](CC(C)C)C(=O)N[C@H](C(=O)N[C@@H](Cc1ccc(O)cc1)C(=O)N[C@@H](CCC(=O)O)C(=O)N[C@@H](Cc1ccccc1)C(=O)N[C@@H](CCSC)C(=O)N[C@@H](CCCCN)C(=O)N[C@@H](CCCCN)C(=O)NCC(=O)N[C@@H](CC(=O)O)C(=O)N[C@H]1CSSC[C@@H](C(=O)N[C@H](C(=O)O)[C@@H](C)O)NC(=O)[C@H](Cc2c[nH]c3ccccc23)NC(=O)[C@H](C(C)C)NC(=O)[C@H](CC(C)C)NC(=O)[C@H](CCC(=O)O)NC(=O)CNC(=O)[C@H](CC(C)C)NC(=O)[C@H](Cc2c[nH]cn2)NC(=O)[C@H](Cc2c[nH]c3ccccc23)NC(=O)[C@H](C)NC1=O)[C@@H](C)CC)C(C)C)[C@@H](C)CC)[C@@H](C)CC` [Compound 117] here?
A: 4.9 nM and 4.4 nM

Q: And the IC50 [1]?
A: 54.8 nM and 61.1 nM

Q: With `CC[C@H](C)[C@H](NC(=O)[C@H](CC(C)C)NC(=O)[C@H](CC(=O)O)NC(=O)[C@H](CO)NC(=O)[C@@H](NC(=O)[C@H](CCCNC(=N)N)NC(=O)[C@H](CCSC)NC(=O)[C@H](CO)NC(=O)[C@H](C)NC(=O)[C@H](CCC(=O)O)NC(=O)[C@H](C)NC(=O)[C@H](Cc1c[nH]cn1)NC(=O)CNC(=O)[C@H](CC(C)C)NC(=O)[C@H](CCC(=O)O)NC(=O)[C@H](CC(=O)O)NC(=O)[C@H](CC(C)C)NC(=O)[C@H](CC(C)C)NC(=O)[C@H](CCCNC(=N)N)NC(=O)[C@H](CCSC)NC(=O)[C@@H](NC(=O)[C@H](CCC(=O)O)NC(=O)[C@H](Cc1ccc(O)cc1)NC(=O)[C@@H](NC(=O)[C@H](CCCCN)NC(=O)[C@H](CCC(N)=O)NC(=O)[C@H](CC(C)C)NC(=O)[C@@H](NC(=O)[C@H](Cc1c[nH]c2ccccc12)NC(=O)[C@H](CCC(=O)O)NC(=O)[C@H](CCCCN)NC(=O)[C@H](CC(=O)O)NC(=O)[C@@H](NC(=O)[C@@H]1CSSC[C@H](NC(=O)[C@H](CC(=O)O)NC(C)=O)C(=O)N[C@@H](C)C(=O)N[C@@H](Cc2c[nH]c3ccccc23)C(=O)N[C@@H](Cc2c[nH]cn2)C(=O)N[C@@H](CC(C)C)C(=O)NCC(=O)N[C@@H](CCC(=O)O)C(=O)N[C@@H](CC(C)C)C(=O)N[C@@H](C(C)C)C(=O)N[C@@H](Cc2c[nH]c3ccccc23)C(=O)N1)[C@@H](C)O)[C@@H](C)CC)[C@@H](C)CC)[C@@H](C)CC)C(C)C)C(=O)N[C@@H](Cc1ccc(O)cc1)C(=O)N[C@@H](CCC(=O)O)C(=O)N[C@@H](Cc1ccccc1)C(=O)N[C@@H](CCSC)C(=O)N[C@@H](CCCCN)C(=O)N[C@@H](CCCCN)C(=O)O` [Compound 121] as the compound, how does the EC50 (SARS-CoV-2 Spike protein) read?
A: 0.83 nM and 0.78 nM

Q: What about the IC50 [1] of the same compound?
A: 10.8 nM
